Laboratory results as given in patent US20220096415A1, “Composition for Improving Cognitive Function” (Demencare Laboratory Inc., priority 2018, published 2022).

Experiments:
[1] = tested on: AD model mice; test: AD model mice with oral intake of c9,t11-CLA: brain staining (IL-10, phosphorylated tau, astrocytes, microglia); format: in vivo, mouse
[2] = tested on: wild-type neurons; test: Western blot of APP, BACE1 and PS1 NTF levels in wild-type neurons; format: cell-based, mouse; details: c9,t11-CLA versus LA
Experimental: Western blot was used to analyze the level of APP (Aβ precursor, which is a substrate for BACE1), BACE1, PS1 NTF (a catalytic unit of γ-Secretase, which is an enzyme for cleaving CTFβ, an APP C-terminal fragment containing an Aβ sequence cleaved by BACE1, to generate Aβ), and a membrane protein Flotillin (control protein) in the LA-added or c9,t11-CLA-added wild-type neurons. The whole cells were lysed in RIPA buffer (components: 50 mM Tris-HCl [pH 8.0], 150 mM NaCl, 0.5% SDS, 0.5% sodium deoxycholate, and 1% Nonidet P-40). The extracted proteins (15 μg protein) were subjected to electrophoresis using SDS-polyacrylamide gel. Then, Western blot with each antibody was used to analyze APP (with the same as an antibody G369, described in Non-Patent Literature 8: Oishi et al. [1997] Mol. Med. 3, 111-123), BACE1 (with an antibody D10E5; Cell Signaling Technology, Inc.), PS1 NTF (with the same as an antibody Ab14, described in Non-Patent Literature 9: Thinakaran et al. [1996] Neuron, 17, 181-190), and Flotillin-1 (with an antibody 610821, BD Bioscience, Inc.). The protein reacted with each antibody was detected using a Clarity Western ECL substrate (Cat *170-5061; Bio-Rad) and quantified with LAS-4000 (Fujifilm).

[3] = target: T1, recombinant BACE1 (rBACE1) (Homo sapiens, UniProt P56817); test: BACE1 activity with recombinant BACE1 in the presence of LA or c9,t11-CLA; format: biochemical; details: 100 μM; for BACE1 activity compared to just a solvent DMSO: rBACE1, 37° C. 15 min, then substrate 1 h
T1 construct: purchased R&D Systems 931-AS
T1 sequence (P56817 46-457 limits assumed): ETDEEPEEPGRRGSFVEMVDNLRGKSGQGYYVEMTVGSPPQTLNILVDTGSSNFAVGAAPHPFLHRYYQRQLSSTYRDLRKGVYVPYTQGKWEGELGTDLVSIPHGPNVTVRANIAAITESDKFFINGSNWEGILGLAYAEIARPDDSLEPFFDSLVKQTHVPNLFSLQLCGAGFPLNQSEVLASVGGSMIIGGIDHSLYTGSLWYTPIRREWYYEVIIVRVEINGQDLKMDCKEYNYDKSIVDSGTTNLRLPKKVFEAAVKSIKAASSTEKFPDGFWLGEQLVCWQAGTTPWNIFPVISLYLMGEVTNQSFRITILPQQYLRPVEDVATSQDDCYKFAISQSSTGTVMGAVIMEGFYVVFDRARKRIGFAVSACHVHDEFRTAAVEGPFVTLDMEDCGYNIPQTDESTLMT
Experimental: Whether or not c9,t11-CLA directly acted on BACE1 and changed its activity was checked by measuring the BACE1 activity in the presence or absence of LA or c9,t11-CLA while recombinant BACE1 (rBACE1, catalog number 931-AS; R&D Systems, Minneapolis, Minn., USA) was used (FIG. 6). First, 100 μM LA or c9,t11-CLA, which had been dissolved in DMSO, was added to rBACE1, and the mixture was incubated at 37° C. for 15 min. Next, a chromogenic substrate was added and incubated at 37° C. for 1 h. Then, the BACE1 activity was measured.

[4] = tested on: BACE1; test: BACE1 activity of wild-type mouse neurons (β-Secretase Activity Assay Kit); format: cell-based; details: 10 uM, 24 h, compared with LA-added neurons
Experimental: The BACE1 activity of the above wild-type mouse neurons used in the experiments shown in FIG. 3 was measured using a β-Secretase (BACE1) Activity Assay Kit (“ab65357”, Abcam, Inc.) in accordance with the instructions.

[5] = tested on: neural stem cells; details: Non-Patent Literature 3; cited from earlier work
[6] = tested on: neurons; details: Non-Patent Literature 1; cited from earlier work
[7] = tested on: wild-type mouse neurons; test: Aβ40 secreted into culture medium by wild-type mouse neurons (sandwich ELISA); format: cell-based; details: 10 uM, 24 h; compared with LA-added neurons (LA set to 1.0)
Experimental: Neurons in the cerebral cortex and hippocampus were isolated from the fetal brain of wild-type mouse (C57BL6/J) and were cultured in Neurobasal Medium containing 2% B-27 Supplement (Invitrogen), 4 mM Glutamax I, and 5% heat-inactivated horse serum (the other detailed conditions were substantially the same as in the protocol disclosed in Non-Patent Literature 4: Chiba et al., [2014] Mol. Biol. Cell 25, 3569-3580).
Primary culture nerves (5×10^3 cells), which had been cultured by the above procedure for 9 to 12 days (DIV9-12), were cultured for 24 h in each of a culture medium containing 10 uM linoleic acid (LA “L1376”, Sigma-Aldrich, Inc.) or a culture medium containing 10 uM c9,t11-CLA (purity: 98%, ABCAM, Inc.) (the experiment was triplicate: n=3 to 6). Next, for each of a sample using LA or a sample using c9,t11-CLA, mouse amyloid β-protein 40 (Aβ40) secreted into the culture medium was quantified by sandwich ELISA (sELISA). […]
The complex was then reacted with an IgG Fab′ fragment of HRP (Horseradish peroxidase)-labeled mouse/rat Aβ(1-16) sequence-specific (rabbit) antibody (IBL, Inc.: Immuno-Biological Laboratories Co, Ltd.). After that, TMB (3,3′,5,5′-tetramethyl benzidine) was used as a chromogenic substrate for quantification. […] In FIG. 3(A), while the level of Aβ40 secreted when LA was added was set to 1.0, the level of Aβ40 secreted when c9,t11-CLA was added was quantified.

[8] = tested on: neurons from APP-KI mouse; test: Human Aβ42 secreted by APP-KI mouse neurons; format: cell-based; details: LA-treated versus c9,t11-CLA-treated nerves, p<0.05, not shown
From the text: The amount of Aβ42 generated from endogenous amyloid-β (Aβ) precursor protein APP is usually very small. Thus, it is difficult to accurately quantify Aβ42 secreted from wild-type mouse neurons. Then, the mouse Aβ sequence was changed to a human form (in FIG. 3(B), the mouse and human amino acid sequences). After that, neurons from a knock-in mouse, into which a familial Alzheimer's disease mutation that increases the level of Aβ42 produced was introduced, (Apptm3.1Tcs/Apptm3.1Tcs) (hereinafter, the same as a mouse called APP-KI mouse described in Non-Patent Literature 6: Saito et al. [2014] Nature Neuroscience 17, 661-663) were cultured in a manner similar to the above. Finally, human Aβ42 secreted while the same experiments as in FIG. 3(A) were repeated was quantified (Non-Patent Literature 7: Kimura, Hata, Suzuki [2016] J. Biol. Chem. 291, 24041-24053).

[9] = hippocampus, oral intake versus no intake

| SMILES | Microglia (Iba1 staining) ([1]; cortex, CLA intake group) | Microglia (Iba1 staining) ([1]; hippocampus, CLA intake group) | number of IL-10-expressing cells ([1]; hippocampus, CLA intake group) | Astrocyte staining [1, 9] | Phosphorylated tau protein staining [1, 9] | level of APP [2] | level of BACE1 [2] | level of PS1 NTF [2] | difference in BACE1 activity between LA and c9,t11-CLA ([3]; rBACE1) | BACE1 activity compared to just a solvent DMSO [3] | BACE1 activity of neurons [4] | effect on growth of neural stem cells [5] | prevention of glutamic acid-induced hyper-excited state and cell death of neurons (neuroprotective effect) [6] | level of Aβ produced/secreted (mouse Aβ40) [7] | level of human Aβ42 secreted [8] |
| --- | --- | --- | --- | --- | --- | --- | --- | --- | --- | --- | --- | --- | --- | --- | --- |
| CCCCCC/C=C/C=C\CCCCCCCC(=O)O [c9,t11-CLA, c9,t11-conjugated linoleic acid] | significant increase | significant increase | significantly increased | tended to decrease | tended to decrease | no observed significant difference | no observed significant difference | no observed significant difference | no observed significant difference | increase in the activity | significantly lower | promoting growth of neural stem cells | can exert the effects | significantly lower |  |
| CCCCC/C=C\C/C=C\CCCCCCCC(=O)O [LA, linoleic acid, reference compound] |  |  |  |  |  |  |  |  |  | increase in the activity |  |  |  |  | significantly lower |
| CCCCC/C=C\C=C\CCCCCCCCC(=O)O [t10,c12-CLA, t10,c12-conjugated linoleic acid, reference compound] |  |  |  |  |  |  |  |  |  |  |  | inhibition of growth of neural stem cells | fails to exert such effects |  |  |
